Data from ChEMBL document CHEMBL1137624, “Synthesis and characterization of pyrrolidine derivatives as potent agonists of the human melanocortin-4 receptor” (Bioorg Med Chem Lett, 2007).

How the values were obtained:
Melanocortin receptor 4 [1] = target: T1, Melanocortin receptor 4 (Homo sapiens, UniProt P32245); assay: Displacement of [125I]NDP-MSH from human MC4 receptor expressed in HEK293 cells; type: cell-based
Melanocortin receptor 4 [2] = target: T1, Melanocortin receptor 4; assay: Intrinsic activity at human MC4 receptor expressed in CHO cells assessed as cAMP accumulation relative to alpha-MSH; type: functional, cell-based
Melanocortin receptor 4 [3] = target: T1, Melanocortin receptor 4; assay: Agonist activity at human MC4 receptor expressed in CHO cells assessed as cAMP accumulation by ELISA; type: functional, cell-based

T1 sequence (P32245 whole entry): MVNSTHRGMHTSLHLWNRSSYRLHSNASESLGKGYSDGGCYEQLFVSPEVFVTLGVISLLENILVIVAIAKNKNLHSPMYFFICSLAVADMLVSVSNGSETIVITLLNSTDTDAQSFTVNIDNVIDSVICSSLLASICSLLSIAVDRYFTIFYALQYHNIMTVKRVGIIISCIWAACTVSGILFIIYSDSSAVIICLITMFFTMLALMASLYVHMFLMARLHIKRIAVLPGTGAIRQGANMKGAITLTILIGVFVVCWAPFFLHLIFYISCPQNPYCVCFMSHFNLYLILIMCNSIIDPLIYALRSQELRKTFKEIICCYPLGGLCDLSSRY

SMILES	Ki (Melanocortin receptor 4 [1])	Intrinsic activity (Melanocortin receptor 4 [2])	EC50 (Melanocortin receptor 4 [3])
CC(=O)N1C[C@@H](C(=O)N2CCN(c3c(F)cccc3[C@@H](N)C(C)C)CC2)[C@H](c2ccc(Cl)cc2)C1	220 nM		
CC(C)C[C@H](N)c1cc(C(F)(F)F)ccc1N1CCN(C(=O)[C@@H]2CN(c3ccccc3)C[C@H]2c2ccc(Cl)cc2)CC1	260 nM	24%	
CC(C)C[C@H](N)c1cc(C(F)(F)F)ccc1N1CCN(C(=O)[C@@H]2CN(Cc3ccccc3)C[C@H]2c2ccc(Cl)cc2)CC1	120 nM	52%	7300 nM
CC(C)[C@H](N)c1cccc(F)c1N1CCN(C(=O)C2CN(Cc3ccccc3)CC2c2ccc(Cl)cc2)CC1 (some centres undefined)	94 nM	19%	
CC(C)[C@H](N)c1cc(C(F)(F)F)ccc1N1CCN(C(=O)[C@@H]2CN(Cc3ccccc3)C[C@H]2c2ccc(Cl)cc2Cl)CC1	610 nM		
Cc1ccc(N2CCN(C(=O)[C@@H]3CN(C(=O)C4CCC4)C[C@H]3c3ccc(Cl)cc3)CC2)c([C@@H](N)C(C)C)c1	78 nM	22%	
CC(C)C[C@H](N)c1cc(C(F)(F)F)ccc1N1CCN(C(=O)[C@@H]2CNC[C@H]2c2ccc(Cl)cc2)CC1	82 nM	34%	
CC(C)[C@H](N)c1cccc(F)c1N1CCN(C(=O)[C@H]2CN(Cc3ccccc3)C[C@@H]2c2ccc(Cl)cc2)CC1	98 nM	3%	
CC(C)[C@H](N)c1cccc(F)c1N1CCN(C(=O)[C@@H]2CN(C(=O)C3CCCCC3)C[C@H]2c2ccc(Cl)cc2)CC1	350 nM		
CC(C)[C@H](N)c1cccc(F)c1N1CCN(C(=O)[C@@H]2CN(CCO)C[C@H]2c2ccc(Cl)cc2)CC1	580 nM		
Cc1ccc(N2CCN(C(=O)[C@@H]3CN(C(=O)CCCc4ccccc4)C[C@H]3c3ccc(Cl)cc3)CC2)c([C@@H](N)C(C)C)c1	100 nM	0%	
CC(C)[C@H](N)c1cccc(F)c1N1CCN(C(=O)[C@@H]2CN(C)C[C@H]2c2ccc(Cl)cc2)CC1	81 nM		
CCCC(=O)N1C[C@@H](C(=O)N2CCN(c3ccc(C)cc3[C@@H](N)C(C)C)CC2)[C@H](c2ccc(Cl)cc2)C1	68 nM	14%	
CC(C)[C@H](N)c1cccc(F)c1N1CCN(C(=O)[C@@H]2CN(Cc3ccccc3)C[C@H]2c2ccc(Cl)cc2)CC1	340 nM	22%	
CC(C)[C@H](N)c1cc(C(F)(F)F)ccc1N1CCN(C(=O)CCc2ccc(Cl)cc2Cl)CC1	74 nM		
CC(=O)N1C[C@@H](C(=O)N2CCN(c3ccc(C)cc3[C@@H](N)C(C)C)CC2)[C@H](c2ccc(Cl)cc2)C1	110 nM	35%	
CC(C)[C@H](N)c1cccc(F)c1N1CCN(C(=O)[C@@H]2CN(C(=O)C(C)(C)C)C[C@H]2c2ccc(Cl)cc2)CC1	540 nM		
CC(C)C[C@H](N)c1cc(C(F)(F)F)ccc1N1CCN(C(=O)[C@@H]2CN(CCN)C[C@H]2c2ccc(Cl)cc2)CC1	180 nM	37%	
CC(C)C[C@H](N)c1cc(C(F)(F)F)ccc1N1CCN(C(=O)[C@@H]2CN(C(=O)CN)C[C@H]2c2ccc(Cl)cc2)CC1	96 nM	12%	
CC(C)[C@H](N)c1cccc(F)c1N1CCN(C(=O)[C@@H]2CN(C(=O)c3ccccc3)C[C@H]2c2ccc(Cl)cc2)CC1	160 nM		
CC(C)C(=O)N1C[C@@H](C(=O)N2CCN(c3c(F)cccc3[C@@H](N)C(C)C)CC2)[C@H](c2ccc(Cl)cc2)C1	250 nM		
Cc1ccc(N2CCN(C(=O)[C@@H]3CN(C(=O)CCCCc4ccccc4)C[C@H]3c3ccc(Cl)cc3)CC2)c([C@@H](N)C(C)C)c1	65 nM	0%	
COCC(COC)N1C[C@@H](C(=O)N2CCN(c3ccc(C)cc3[C@@H](N)C(C)C)CC2)[C@H](c2ccc(Cl)cc2)C1	200 nM	27%	
Cc1ccc(N2CCN(C(=O)[C@@H]3CN(C(=O)CCc4ccccc4)C[C@H]3c3ccc(Cl)cc3)CC2)c([C@@H](N)C(C)C)c1	75 nM	0%	
CC(C)[C@H](N)c1cccc(F)c1N1CCN(C(=O)[C@@H]2CN(C(C)C)C[C@H]2c2ccc(Cl)cc2)CC1		86%	
COCC(C)N1C[C@@H](C(=O)N2CCN(c3ccc(C)cc3[C@@H](N)C(C)C)CC2)[C@H](c2ccc(Cl)cc2)C1 (some centres undefined)	64 nM	36%	
CCCC(=O)N1C[C@@H](C(=O)N2CCN(c3c(F)cccc3[C@@H](N)C(C)C)CC2)[C@H](c2ccc(Cl)cc2)C1	260 nM		
CC(C)C[C@H](N)c1cc(C(F)(F)F)ccc1N1CCN(C(=O)[C@@H]2CN(S(C)(=O)=O)C[C@H]2c2ccc(Cl)cc2)CC1	95 nM	34%	
CC(C)C[C@H](N)c1cc(C(F)(F)F)ccc1N1CCN(C(=O)[C@@H]2CN(C(=O)OC(C)(C)C)C[C@H]2c2ccc(Cl)cc2)CC1	390 nM	32%	
CC(C)[C@H](N)c1cccc(F)c1N1CCN(C(=O)[C@@H]2CN(CCC(F)(F)F)C[C@H]2c2ccc(Cl)cc2)CC1	205 nM		

More lines, now with the values ahead:

Ki (Melanocortin receptor 4 [1])	Intrinsic activity (Melanocortin receptor 4 [2])	EC50 (Melanocortin receptor 4 [3])	SMILES
12 nM	36%		Cc1ccc(N2CCN(C(=O)C3CN(C4CCOCC4)CC3c3ccc(Cl)cc3)CC2)c([C@@H](N)C(C)C)c1 (some centres undefined)
32 nM			CC(C)[C@H](N)c1cccc(F)c1N1CCN(C(=O)[C@@H]2CN(C3CCC3)C[C@H]2c2ccc(Cl)cc2)CC1
36 nM	52%		Cc1ccc(N2CCN(C(=O)[C@@H]3CN(Cc4ccccc4)C[C@H]3c3ccc(Cl)cc3)CC2)c([C@@H](N)C(C)C)c1
43 nM	52%	1400 nM	CC(C)CN1C[C@@H](C(=O)N2CCN(c3c(F)cccc3[C@@H](N)C(C)C)CC2)[C@H](c2ccc(Cl)cc2)C1
18 nM	1%		Cc1ccc(N2CCN(C(=O)[C@@H]3CN(C4CCN(C(C)C)CC4)C[C@H]3c3ccc(Cl)cc3)CC2)c([C@@H](N)C(C)C)c1
6.6 nM	21%		Cc1ccc(N2CCN(C(=O)[C@@H]3CN(C4CCCCC4)C[C@H]3c3ccc(Cl)cc3)CC2)c([C@@H](N)C(C)C)c1
59 nM	31%		CCC(=O)N1C[C@@H](C(=O)N2CCN(c3ccc(C)cc3[C@@H](N)C(C)C)CC2)[C@H](c2ccc(Cl)cc2)C1
9.3 nM	49%		CC(C)[C@H](N)c1cccc(F)c1N1CCN(C(=O)[C@@H]2CN(C3CCCCC3)C[C@H]2c2ccc(Cl)cc2)CC1
26 nM			CC(C)[C@H](N)c1cc(C(F)(F)F)ccc1N1CCN(C(=O)[C@H](C)Cc2ccc(Cl)cc2Cl)CC1
18 nM	3%		CCN1CCC(N2C[C@@H](C(=O)N3CCN(c4ccc(C)cc4[C@@H](N)C(C)C)CC3)[C@H](c3ccc(Cl)cc3)C2)CC1
4.5 nM			CC(C)[C@H](N)c1cc(C(F)(F)F)ccc1N1CCN(C(=O)[C@@H](Cc2ccc(Cl)cc2Cl)N2CCCC2=O)CC1
31 nM			CC(C)[C@H](N)c1cccc(F)c1N1CCN(C(=O)[C@@H]2CN(C(=O)C3CC3)C[C@H]2c2ccc(Cl)cc2)CC1
15 nM	0%		Cc1ccc(N2CCN(C(=O)[C@@H]3CN(C(=O)OC(C)(C)C)C[C@H]3c3ccc(Cl)cc3)CC2)c([C@@H](N)C(C)C)c1
30 nM	3%		CC(C)C[C@H](N)c1cc(C(F)(F)F)ccc1N1CCN(C(=O)[C@@H]2CN(C(=O)c3ccccc3)C[C@H]2c2ccc(Cl)cc2)CC1
